In US20140275711A1, “1-(Arylmethyl)-5,6,7,8-tetrahydroquinazolline-2,4-diones and Analogs and the Use Thereof” (Impact Therapeutics, Inc., priority 2011, published 2014):
Like-named read-outs stand apart in the source and are kept apart here.

Assays:
[1] = test system: Human breast cancer cell line T47D; test: Potentiation of MMS induced apoptosis, cell based caspase-3 activity assay; settings: read-out: Compounds potentiate the apoptosis inducing activity of MMS (EC50);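 note: Caspase-3 activity in cell lysates measured by fluorescence (RFU), EC50 fitted from sigmoidal curve of signal versus log compound concentration in presence of MMS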
Experimental: Human breast cancer cell line T47D (Nanjing KeyGEN Biotech. CO., LTD.) was used to determine the potentiation effect of PARP-1 inhibitors on the apoptosis inducing activity of DNA damaging anticancer drugs such as MMS. Intracellular caspase-3 activity was used to measure cell apoptosis. Briefly, T47D cells were grown in DMEM/F12 cell culture medium (Hyclone) supplemented with 0.2 U/ml insulin (Genview) and 10% FBS (Hyclone). A day before experiment, 20000 of T47D cells were seeded to each well of a 96-well cell culture plate and maintained at 37° C. and 5% CO2 in a cell culture incubator overnight. On the day of experiment, cell culture medium was removed. […] The serial dilutions of the compounds to be tested and the reference compounds were made in a 1:3 and 1:10 fashion in DMSO. The 10-fold compound solutions were made by mixing 10 μl DMSO serial dilution solutions with 90 μl fresh growth medium. Twenty four hours later, the cells in the 96-well plates were centrifuged at 1000 g for 5 min and the supernatants were removed. 50 μl lysis buffer (10 mM Tris, pH 7.5, 0.1M NaCl, 1 mM EDTA, 0.01% Triton X-100) was added to each well and the plates were shaked horizontally for 30 min at 4° C. After centrifugation at 1000 g at 4° C. for 10 min, 20 μl of supernatant was transferred from each well to a corresponding well in a 384-well black plate. […] The plates were shaked to uniformly mix the wells and incubated at 37° C. for 3 h. […] The caspase-3 activity induced by the compounds was expressed as a relative fluorescence unit (RFU). The obtained fluorescence readings were analyzed using a commercial graphic software (GraphPad Prism 5) and plotted against the Log value of the compound concentrations. The EC50 values were obtained by fitting the data points with the equation of Y (fluorescence reading)=minimal fluorescence reading+(maximal fluorescence reading−minimal fluorescence reading)/(1+10̂(LogEC50−LogC)), where C is the concentration of the testing compound. The EC50 values were obtained by fitting the data points with S-shaped dose response curve equation (GraphPad Software, Inc).

[2] = test system: SW620 human colorectal cancer cells; test: Potentiation of the growth inhibiting activity of MMS, MTT based cell viability assay; settings: read-out: Compounds potentiate the growth inhibiting activity of MMS (IC50)
Experimental: The synergistic potentiation effect of PARP inhibitors on the growth inhibiting activity of DNA damaging anticancer drugs such as methyl methanesulphonate (MIMS) were measured with SW620 human colorectal cancer cells (Shanghai Cancer Institute) using a MTT based cell viability assay. SW620 cells were grown and maintained in RPMI1640 (Gibco) medium supplemented with 10% FBS (Hyclone). In the first day of experiment, 4000 cells were seeded to each well of a 96-well cell culture plate and incubated at 37° C. and 5% CO2 in a cell culture incubator overnight. In the next day, the cell culture medium was removed. […] The serial dilutions of the reference compounds and the compounds to be tested were made with a 1:3 and 1:10 fashion in DMSO. The 10-fold concentrated solutions of these compounds were made by mixing 10 μl of the serial dilutions in DMSO with 90 μl fresh medium. The final concentration of DMSO in the medium was 1%. The cells were incubated at 37° C. in 5% CO2 cell culture incubator for additional 5 days (120 hours). Afterwards, the 96-well cell culture plate was taken out and 20 μl of MTT solution was added to each well and incubated at 37° C. for 4 h. The medium was removed and 100 μl DMSO was added to each well. The 96-well cell culture plates were shaked adequately for 10 min and readed in a Varioskan Flash plate reader (Thermo Fisher Scientific) at 520 and 690 nm. The data were analyzed by Prism 5 software (GraphPad). The obtained 520 nm absorbance readings substracting corresponding 690 nm reading were analyzed and plotted against the Log scale of the compound concentrations.

[3] = test system: BRCA-2 deficient CAPAN-1 human pancreatic cancer cells; test: Cell growth inhibition of BRCA-2 deficient CAPAN-1 cells, MTT based cell viability assay; settings: Homo sapiens, CAPAN-1, 240 h, read-out: Growth inhibition of CAPAN-1 cells by compounds (IC50)
Experimental: BRCA-2 deficient CAPAN-1 human pancreatic cancer cells were used to test the growth inhibiting activity of substituted 1-(arylmethyl)-5,6,7,8-tetrahydroquinazoline-2,4(1H,3H)-diones. Briefly, CAPAN-1 cells are grown and maintained in IMEM medium supplemented with 20% FBS. The assay takes 10 days to finish. On day 1, 6000 CAPAN-1 cells are seeded to each well of a 96-well plate. The cells are incubated at 37° C. in a CO2 cell culture incubator overnight. […] Ten-fold compound solutions were made by mixing 10 μl DMSO serial dilution solutions with 90 μl fresh growth medium. The cell culture medium was removed and 180 μl fresh media with FBS and 20 μl of compound solutions were added to each well. The final concentration of DMSO was 1%. Cells were then returned to the CO2 cell culture incubator and incubated at 37° C. for two days (day 3 and day 4). On day 5, the same procedure as what was done on day 2 was repeated. Cell culture medium was removed and fresh medium containing serial dilutions of compounds or reference compounds were added. Cells were returned to the CO2 cell culture incubator and incubated for two more days. On day 8, same procedure was repeated again and fresh medium containing the testing compounds or reference compounds were added and incubated for an additional 2 days. On day 10, 20 μl of MTT reagent (5 mg/ml) was added to each well of the cell culture plate and incubated for 4 h. The cell culture media was removed and 100 μl DMSO was added to each well. The 96-well cell culture plates were shaked horizontally for 10 min and readed in a Varioskan Flash plate reader (Thermo Fisher Scientific) at 520 and 690 nm. The obtained 520 nm absorbance readings substracting corresponding 690 nm reading were analyzed using a commercial graphic software (GraphPad Prism 5) and plotted against the Log scale of the compound concentrations.

[4] = T47D cells, 100 nM MMS, 24 hours, intracellular caspase-3 activity
[5] = SW620 cells, medium containing 1.5 μg/ml MMS, 5 days (120 hours), MTT

| SMILES | EC50 ([1]; Homo sapiens, T47D, 24 h) [nM] | IC50 ([2]; Homo sapiens, SW-620, 120 h) [nM] | IC50 [3] [nM] | EC50 [1, 4] [nM] | IC50 [2, 5] [nM] |
| --- | --- | --- | --- | --- | --- |
| O=C(c1cc(Cc2n[nH]c(=O)c3ccccc23)ccc1F)N1CCN(C(=O)C2CC2)CC1 [AZD2281, olaparib, reference compound] | 14 | 46 | 1070 | – | – |
| O=C(c1cccc(Cn2c3c(c(=O)[nH]c2=O)CCCC3)c1)N1CCN(C(=O)c2cccs2)CC1 [Example 7, 1-(3-(4-(Thiophene-2-carbonyl)piperazine-1-carbonyl)benzyl)-5,6,7,8-tetrahydroquinazoline-2,4(1H,3H)-dione] | 62 | 21 | – | – | – |
| O=C(c1cccc(Cn2c3c(c(=O)[nH]c2=O)CCCC3)c1)N1CCN(c2nccs2)CC1 [Example 8, 1-(3-(4-(Thiazol-2-yl)piperazine-1-carbonyl)benzyl)-5,6,7,8-tetrahydroquinazoline-2,4(1H,3H)-dione] | 20 | 11 | – | – | – |
| O=C(c1cccc(Cn2c3c(c(=O)[nH]c2=O)CCCC3)c1)N1CCN(C(=O)C2CCCC2)CC1 [Example 9, 1-(3-(4-(Cyclopentylcarbonyl)piperazine-1-carbonyl)benzyl)-5,6,7,8-tetrahydroquinazoline-2,4(1H,3H)-dione] | 91 | 12 | 107 | – | – |
| O=C(c1cccc(Cn2c3c(c(=O)[nH]c2=O)CCCC3)c1)N1CCN(c2ccccn2)CC1 [Example 11, 1-(3-(4-(Pyridin-2-yl)piperazine-1-carbonyl)benzyl)-5,6,7,8-tetrahydroquinazoline-2,4(1H,3H)-dione] | 31 | 6.9 | 32 | – | – |
| O=C(c1cccc(Cn2c3c(c(=O)[nH]c2=O)CCCC3)c1)N1CCN(c2cnccn2)CC1 [Example 16, 1-(3-(4-(Pyrazin-2-yl)piperazine-1-carbonyl)benzyl)-5,6,7,8-tetrahydroquinazoline-2,4(1H,3H)-dione] | 43 | 13 | – | – | – |
| O=C(c1cccs1)N1CCN(C(=O)c2cc(Cn3c4c(c(=O)[nH]c3=O)CCCC4)ccc2F)CC1 [Example 21, 1-(4-Fluoro-3-(4-(thiophene-2-carbonyl)piperazine-1-carbonyl)benzyl)-5,6,7,8-tetrahydroquinazoline-2,4(1H,3H)-dione] | 2.8 | 1.3 | 101 | – | – |
| O=C(c1ccc(F)cc1)N1CCN(C(=O)c2cc(Cn3c4c(c(=O)[nH]c3=O)CCCC4)ccc2F)CC1 [Example 32, 1-(4-Fluoro-3-(4-(4-fluorobenzoyl)piperazine-1-carbonyl)benzyl)-5,6,7,8-tetrahydroquinazoline-2,4(1H,3H)-dione] | 27 | 6.3 | – | – | – |
| CC(=O)N1CCN(C(=O)c2cc(Cn3c4c(c(=O)[nH]c3=O)CCCC4)ccc2F)CC1 [Example 34, 1-(4-Fluoro-3-(4-acetylpiperazine-1-carbonyl)benzyl)-5,6,7,8-tetrahydroquinazoline-2,4(1H,3H)-dione] | 402 | 42 | – | – | – |
| COc1ccc(C(=O)N2CCN(C(=O)c3cc(Cn4c5c(c(=O)[nH]c4=O)CCCC5)ccc3F)CC2)cc1 [Example 37, 1-(4-Fluoro-3-(4-(4-methoxybenzoyl)piperazine-1-carbonyl)benzyl)-5,6,7,8-tetrahydroquinazoline-2,4(1H,3H)-dione] | 48 | 14 | – | – | – |
| O=C(c1cccc(Cn2c3c(c(=O)[nH]c2=O)CCC3)c1)N1CCN(c2ncccn2)CC1 [Example 45] | – | – | – | 402 | 138 |
| O=C(c1ccc(F)c(Cn2c3c(c(=O)[nH]c2=O)CCCC3)c1)N1CCN(C(=O)c2ccco2)CC1 [Example 52, 1-(6-Fluoro-3-(4-(furan-2-carbonyl)piperazine-1-carbonyl)benzyl)-5,6,7,8-tetrahydroquinazoline-2,4(1H,3H)-dione] | 24 | 16 | – | – | – |
| O=C(c1ccc(Cn2c3c(c(=O)[nH]c2=O)CCCC3)cc1)N1CCN(c2ncccn2)CC1 [Example 55, 1-(4-(4-(Pyrimidin-2-yl)piperazine-1-carbonyl)benzyl)-5,6,7,8-tetrahydroquinazoline-2,4(1H,3H)-dione] | > 10000 | > 10000 | – | – | – |
| CC1CCc2c(c(=O)[nH]c(=O)n2Cc2ccc(F)c(C(=O)N3CCN(c4ncccn4)CC3)c2)C1 (stereo not drawn) [Example 57, 1-(4-Fluoro-3-(4-(pyrimidin-2-yl)piperazine-1-carbonyl)benzyl)-6-methyl-5,6,7,8-tetrahydroquinazoline-2,4(1H,3H)-dione] | 429 | 221 | – | – | – |
| O=C(c1cc(Cn2c3c(c(=O)[nH]c2=O)CCCCC3)ccc1F)N1CCN(c2ncccn2)CC1 [Example 59, 1-(4-Fluoro-3-(4-(pyrimidin-2-yl)piperazine-1-carbonyl)benzyl)-6,7,8,9-tetrahydro-1H-cyclohepta[d]pyrimidine-2,4(3H,5H)-dione] | 309 | 42 | – | – | – |

Now from value to compound:

| EC50 ([1]; Homo sapiens, T47D, 24 h) [nM] | IC50 ([2]; Homo sapiens, SW-620, 120 h) [nM] | IC50 [3] [nM] | EC50 [1, 4] [nM] | IC50 [2, 5] [nM] | SMILES |
| --- | --- | --- | --- | --- | --- |
| 3.5 | 15 | 22 | – | – | O=C(c1cccc(Cn2c3c(c(=O)[nH]c2=O)CCCC3)c1)N1CCN(c2ncccn2)CC1 [Example 5, 1-(3-(4-(Pyrimidin-2-yl)piperazine-1-carbonyl)benzyl)-5,6,7,8-tetrahydroquinazoline-2,4(1H,3H)-dione] |
| > 1000 | 120 | – | – | – | O=C(c1cccc(Cn2c3c(c(=O)[nH]c2=O)CCCC3)c1)N1CCN(C(=O)C2CC2)CC1 [Example 6, 1-(3-(4-(Cyclopropylcarbonyl)piperazine-1-carbonyl)benzyl)-5,6,7,8-tetrahydroquinazoline-2,4(1H,3H)-dione] |
| 325 | 36 | – | – | – | O=C(c1ccccc1)N1CCN(C(=O)c2cccc(Cn3c4c(c(=O)[nH]c3=O)CCCC4)c2)CC1 [Example 10, 1-(3-(4-Benzoylpiperazine-1-carbonyl)benzyl)-5,6,7,8-tetrahydroquinazoline-2,4(1H,3H)-dione] |
| 62 | 9.7 | – | – | – | O=C(c1cccc(Cn2c3c(c(=O)[nH]c2=O)CCCC3)c1)N1CCN(C(=O)C2CCCCC2)CC1 [Example 12, 1-(3-(4-(Cyclohexylcarbonyl)piperazine-1-carbonyl)benzyl)-5,6,7,8-tetrahydroquinazoline-2,4(1H,3H)-dione] |
| 374 | 33 | – | – | – | O=C(c1cccc(Cn2c3c(c(=O)[nH]c2=O)CCCC3)c1)N1CCN(C(=O)c2ccco2)CC1 [Example 13, 1-(3-(4-(Furan-2-carbonyl)piperazine-1-carbonyl)benzyl)-5,6,7,8-tetrahydroquinazoline-2,4(1H,3H)-dione] |
| 35 | 22 | – | – | – | O=C(c1cccc(Cn2c3c(c(=O)[nH]c2=O)CCCC3)c1)N1CCN(C(=O)C2CCC2)CC1 [Example 14, 1-(3-(4-(Cyclobutylcarbonyl)piperazine-1-carbonyl)benzyl)-5,6,7,8-tetrahydroquinazoline-2,4(1H,3H)-dione] |
| 72 | 31 | – | – | – | O=C(c1ccsc1)N1CCN(C(=O)c2cccc(Cn3c4c(c(=O)[nH]c3=O)CCCC4)c2)CC1 [Example 15, 1-(3-(4-(Thiophene-3-carbonyl)piperazine-1-carbonyl)benzyl)-5,6,7,8-tetrahydroquinazoline-2,4(1H,3H)-dione] |
| 41 | 9.5 | 35 | – | – | O=C(c1ccccc1)N1CCN(C(=O)c2cc(Cn3c4c(c(=O)[nH]c3=O)CCCC4)ccc2F)CC1 [Example 18, 1-(4-Fluoro-3-(4-benzoylpiperazine-1-carbonyl)benzyl)-5,6,7,8-tetrahydroquinazoline-2,4(1H,3H)-dione] |
| 324 | 25 | – | – | – | O=C(c1cc(Cn2c3c(c(=O)[nH]c2=O)CCCC3)ccc1F)N1CCN(C(=O)C2CC2)CC1 [Example 19, 1-(4-Fluoro-3-(4-(cyclopropylcarbonyl)piperazine-1-carbonyl)benzyl)-5,6,7,8-tetrahydroquinazoline-2,4(1H,3H)-dione] |
| 138 | 18 | – | – | – | CCS(=O)(=O)N1CCN(C(=O)c2cc(Cn3c4c(c(=O)[nH]c3=O)CCCC4)ccc2F)CC1 [Example 29, 1-(4-Fluoro-3-(4-ethylsulfonylpiperazine-1-carbonyl)benzyl)-5,6,7,8-tetrahydroquinazoline-2,4(1H,3H)-dione] |
| 295 | 31 | – | – | – | CCN1CCN(C(=O)c2cc(Cn3c4c(c(=O)[nH]c3=O)CCCC4)ccc2F)CC1 [Example 31, 1-(4-Fluoro-3-(4-ethylpiperazine-1-carbonyl)benzyl)-5,6,7,8-tetrahydroquinazoline-2,4(1H,3H)-dione] |
| 26 | 13 | – | – | – | O=C(c1ccccc1)N1CCN(C(=O)c2ccc(F)c(Cn3c4c(c(=O)[nH]c3=O)CCCC4)c2)CC1 [Example 48, 1-(6-Fluoro-3-(4-benzoylpiperazine-1-carbonyl)benzyl)-5,6,7,8-tetrahydroquinazoline-2,4(1H,3H)-dione] |
| 532 | 107 | – | – | – | O=C(c1cc(Cn2c3c(c(=O)[nH]c2=O)CCCC3)ccc1F)N1CCC(c2ccccc2)CC1 [Example 54, 1-(4-Fluoro-3-(4-phenylpiperidine-1-carbonyl)benzyl)-5,6,7,8-tetrahydroquinazoline-2,4(1H,3H)-dione] |
| > 10000 | > 10000 | – | – | – | O=C(c1ccccc1Cn1c2c(c(=O)[nH]c1=O)CCCC2)N1CCN(c2ncccn2)CC1 [Example 56, 1-(2-(4-(Pyrimidin-2-yl)piperazine-1-carbonyl)benzyl)-5,6,7,8-tetrahydroquinazoline-2,4(1H,3H)-dione] |
| – | – | – | 350 | 82 | CC1CCCc2c1c(=O)[nH]c(=O)n2Cc1ccc(F)c(C(=O)N2CCN(c3ccccn3)CC2)c1 (stereo not drawn) [Example 58, 1-(4-Fluoro-3-(4-(pyridin-2-yl)piperazine-1-carbonyl)benzyl)-5-methyl-5,6,7,8-tetrahydroquinazoline-2,4(1H,3H)-dione] |
